In ChEMBL document CHEMBL2401692, “Synthesis, structure-activity relationships, and in vivo efficacy of the novel potent and selective anaplastic lymphoma kinase (ALK) inhibitor 5-chloro-N2-(2-isopropoxy-5-methyl-4-(piperidin-4-yl)phenyl)-N4-(2-(isopropylsulfonyl)phenyl)pyrimidine-2,4-diamine (LDK378) currently in phase 1 and phase …” (J Med Chem, 2013):
≈ marks a conversion by molar mass, not a printed value.

Legend:
KARPAS-299 = assay: cells; conditions: Homo sapiens
BaF3 = assay: cells; conditions: Mus musculus
Cytochrome P450 3A4 = Cytochrome P450 3A4 (Homo sapiens, UniProt P08684); assay: Inhibition of CYP3A4 in human liver microsomes using midazolam as substrate by LC-MS/MS analysis; type: ADME, Microsome
[1] = Intrinsic clearance in rat liver microsomes; type: ADME, Microsome; conditions: read-out: CLH
[2] = Solubility of the compound […] at pH 6.8; type: physicochemical
[3] = biological target: T1, Voltage-gated inwardly rectifying potassium channel KCNH2 (Homo sapiens, UniProt Q12809)
Description: Inhibition of human ERG by dofetilide binding assay

[4] = Intrinsic clearance in human liver microsomes; type: ADME, Microsome; conditions: read-out: CLH
[5] = Intrinsic clearance in mouse liver microsomes; type: ADME, Microsome; conditions: read-out: CLH
[6] = biological target: T1, Voltage-gated inwardly rectifying potassium channel KCNH2; assay: Inhibition of human ERG by patch-clamp technique
[7] = Oral bioavailability in Sprague-Dawley rat at 10 mg/kg; type: ADME, organism-based; conditions: in vivo

Sequence of Cytochrome P450 3A4 (P08684 whole entry): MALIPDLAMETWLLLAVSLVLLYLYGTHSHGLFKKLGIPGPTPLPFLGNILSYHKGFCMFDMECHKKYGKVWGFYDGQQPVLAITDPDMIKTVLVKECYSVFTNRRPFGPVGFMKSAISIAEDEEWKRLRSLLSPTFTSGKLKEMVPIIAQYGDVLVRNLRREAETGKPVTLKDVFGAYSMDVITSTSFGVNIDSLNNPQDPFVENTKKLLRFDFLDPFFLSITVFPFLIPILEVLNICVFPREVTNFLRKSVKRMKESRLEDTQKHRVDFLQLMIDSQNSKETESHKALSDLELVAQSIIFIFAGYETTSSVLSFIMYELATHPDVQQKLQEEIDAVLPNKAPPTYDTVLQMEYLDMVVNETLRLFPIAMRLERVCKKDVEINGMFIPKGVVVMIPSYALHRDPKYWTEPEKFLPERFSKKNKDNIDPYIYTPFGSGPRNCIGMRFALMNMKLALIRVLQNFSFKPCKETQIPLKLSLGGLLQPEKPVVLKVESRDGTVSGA
T1 sequence (Q12809 whole entry): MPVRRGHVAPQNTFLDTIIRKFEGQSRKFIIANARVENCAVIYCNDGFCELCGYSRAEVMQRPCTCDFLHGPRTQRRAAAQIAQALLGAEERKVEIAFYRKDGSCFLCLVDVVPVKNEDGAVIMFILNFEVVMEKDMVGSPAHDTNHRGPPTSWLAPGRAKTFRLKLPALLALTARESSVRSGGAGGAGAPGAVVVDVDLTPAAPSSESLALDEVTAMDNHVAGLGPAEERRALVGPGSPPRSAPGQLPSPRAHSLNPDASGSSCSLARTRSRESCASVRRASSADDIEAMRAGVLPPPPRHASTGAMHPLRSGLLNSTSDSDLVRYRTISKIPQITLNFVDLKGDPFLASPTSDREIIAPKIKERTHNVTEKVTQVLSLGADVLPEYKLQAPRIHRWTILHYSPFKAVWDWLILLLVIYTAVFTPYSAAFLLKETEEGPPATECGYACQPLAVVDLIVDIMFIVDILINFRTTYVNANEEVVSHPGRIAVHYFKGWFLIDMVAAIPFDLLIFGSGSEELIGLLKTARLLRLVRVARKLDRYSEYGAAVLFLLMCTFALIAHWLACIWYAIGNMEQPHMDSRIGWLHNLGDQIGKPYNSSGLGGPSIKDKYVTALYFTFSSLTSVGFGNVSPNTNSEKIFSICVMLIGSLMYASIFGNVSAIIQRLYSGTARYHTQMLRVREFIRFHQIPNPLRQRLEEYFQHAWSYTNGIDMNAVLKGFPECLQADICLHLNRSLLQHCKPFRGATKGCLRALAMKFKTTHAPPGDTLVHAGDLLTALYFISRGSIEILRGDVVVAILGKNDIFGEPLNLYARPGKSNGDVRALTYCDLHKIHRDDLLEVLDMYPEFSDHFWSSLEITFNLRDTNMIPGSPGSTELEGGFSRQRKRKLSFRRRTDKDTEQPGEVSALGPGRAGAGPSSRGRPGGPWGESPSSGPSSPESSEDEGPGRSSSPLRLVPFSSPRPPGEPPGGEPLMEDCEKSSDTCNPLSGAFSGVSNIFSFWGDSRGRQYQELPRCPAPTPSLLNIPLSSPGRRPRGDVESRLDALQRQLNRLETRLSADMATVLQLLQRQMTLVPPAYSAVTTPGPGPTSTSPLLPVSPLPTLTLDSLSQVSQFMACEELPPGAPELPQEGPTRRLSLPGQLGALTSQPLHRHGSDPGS

SMILES | IC50 (KARPAS-299) [nM] | IC50 (BaF3) [nM] | INH (Cytochrome P450 3A4) [µM] | microsomal CLint [1] [µL/min/mg] | solubility [2] [µM] | IC50 [3] [nM] | microsomal CLint [4] [µL/min/mg] | microsomal CLint [5] [µL/min/mg] | IC50 [6] [nM] | bioavailability [7] [%]
CCN1CCC(c2cc(OC(C)C)c(Nc3ncc(C)c(Nc4ccccc4S(=O)(=O)C(C)C)n3)cc2C)CC1 | 10.5 | 4000 | – | – | – | – | – | – | – | –
Cc1cc(Nc2ncc(C)c(Nc3ccccc3S(=O)(=O)C(C)C)n2)c(OC(C)C)cc1C1CCN(CCO)CC1 | 23.8 | > 10000 | – | – | – | – | – | – | – | –
COCCN1CCC(c2cc(OC(C)C)c(Nc3ncc(C)c(Nc4ccccc4S(=O)(=O)C(C)C)n3)cc2C)CC1 | 22.4 | 4410 | – | – | – | – | – | – | – | –
Cc1cc(Nc2ncc(Cl)c(Nc3ccccc3S(=O)(=O)C(C)C)n2)c(OC(C)C)cc1C1CCNC(=O)C1 (centres undefined) | 38.4 | > 10000 | – | – | – | – | – | – | – | –
CC(C)Oc1nc(C2CCNCC2)ncc1Nc1ncc(Cl)c(Nc2ccccc2S(=O)(=O)C(C)C)n1 | 33.3 | 3800 | 9.3 | 18 | 138 (≈ 75.4 µg/mL) | 400 | 16 | 21 | – | –
Cc1cc(Nc2cc(Nc3ccccc3S(=O)(=O)C(C)C)c(Cl)cn2)c(OC(C)C)cc1C1CCN(C)CC1 | 5510 | 5410 | – | – | – | – | – | – | – | –
Cc1cc(Nc2ncc(Cl)c(Nc3ccccc3S(=O)(=O)N(C)C)n2)c(OC(C)C)cc1C1CCN(C)CC1 | 14.3 | 1190 | – | – | – | – | – | – | – | –
CCN1CCC(c2cc(OC(C)C)c(Nc3ncc(Cl)c(Nc4ccccc4S(=O)(=O)C(C)C)n3)cc2C)CC1 | 11.1 | 4120 | – | – | – | – | – | – | – | –
Cc1cc(Nc2ncc(Cl)c(Nc3ccccc3S(=O)(=O)C(C)C)n2)c(OC(C)C)cc1C1CCN(C(C)C)CC1 | 14.5 | 3860 | – | – | – | – | – | – | – | –
Cc1cc(Nc2ncc(Cl)c(Nc3ccccc3S(=O)(=O)C(C)C)n2)c(OC(C)C)cc1C1CCN(CCO)CC1 | – | 4340 | 2.5 | 14 | 36 (≈ 21.7 µg/mL) | – | 15 | 15 | – | –
COCCN1CCC(c2cc(OC(C)C)c(Nc3ncc(Cl)c(Nc4ccccc4S(=O)(=O)C(C)C)n3)cc2C)CC1 | 16.1 | 4970 | – | – | – | – | – | – | – | –
Cc1cc(Nc2ncc(Cl)c(Nc3ccccc3S(=O)(=O)C(C)C)n2)c(OC(C)C)cc1C1CCN(C2CCN(C)CC2)CC1 | 100 | 1420 | – | – | – | – | – | – | – | –
Cc1cc(Nc2ncc(Cl)c(Nc3ccccc3S(=O)(=O)C(C)C)n2)c(OC(C)C)cc1C1CCN(CC(F)F)CC1 | 294 | > 10000 | – | – | – | – | – | – | – | –
Cc1cc(Nc2ncc(Cl)c(Nc3ccccc3S(=O)(=O)C(C)C)n2)c(OC(C)C)cc1C1CCN(CC(=O)O)CC1 | 15.3 | > 10000 | – | – | – | – | – | – | – | –
Cc1cc(Nc2ncc(Cl)c(Nc3ccccc3S(=O)(=O)C(C)C)n2)c(OC(C)C)cc1C1CCN(CC(N)=O)CC1 | 7.9 | 7540 | – | – | – | – | – | – | – | –
Cc1cc(Nc2ncc(Cl)c(Nc3ccccc3S(=O)(=O)C(C)C)n2)c(OC(C)C)cc1C1CCN(C(=O)CN(C)C)CC1 | 21.7 | 2740 | 0.6 | 21 | 4 (≈ 2.57 µg/mL) | – | 46 | 45 | – | –
Cc1cc(Nc2ncc(C)c(Nc3ccccc3S(=O)(=O)C(C)C)n2)c(OC(C)C)cc1C1CCN(C)CC1 | 15.6 | 4080 | 9.8 | 14 | 144 (≈ 79.5 µg/mL) | 1100 | 8 | 15 | 20000 | –
CC(C)Oc1cc(N2CCC(N3CCN(C)CC3)CC2)ccc1Nc1ncc(Cl)c(Nc2ccccc2S(=O)(=O)C(C)C)n1 | 25.5 | 3400 | – | – | – | – | – | – | – | –
CC(C)Oc1cc(C2CCNCC2)ccc1Nc1ncc(Cl)c(Nc2ccccc2S(=O)(=O)C(C)C)n1 | 7.8 | 3010 | 1.4 | 15 | 4 (≈ 2.18 µg/mL) | – | 15 | 15 | – | 12
Cc1cc(Nc2ncc(C)c(Nc3ccccc3S(=O)(=O)C(C)C)n2)c(OC(C)C)cc1C1CCNCC1 | 13.1 | 2880 | – | – | – | – | – | – | – | –
Cc1cc(Nc2ncc(Cl)c(Nc3ccccc3S(=O)(=O)C3CCC3)n2)c(OC(C)C)cc1C1CCNCC1 | 13.5 | 2460 | – | – | – | – | – | – | – | –
Cc1cc(Nc2ncc(Cl)c(Nc3ccccc3S(=O)(=O)C(C)C)n2)c(OC2CCC2)cc1C1CCNCC1 | 13.1 | 2520 | 7.3 | 15 | < 2 | – | 15 | 15 | – | –
Cc1cc(Nc2ncc(Cl)c(Nc3ccccc3S(=O)(=O)C(C)C)n2)c(OC(C)C)cc1C1CCN(C)CC1 | 11.2 | 4000 | 2.1 | 4 | 64 (≈ 36.6 µg/mL) | – | 17 | 15 | – | –
